Drawing on ChEMBL document CHEMBL5104129, “Discovery of a novel 2-spiroproline steroid mimetic scaffold for the potent inhibition of 11β-HSD1” (Bioorg Med Chem Lett, 2022), this text covers IC50 for 2 compounds.

This experiment has as its target 11-beta-hydroxysteroid dehydrogenase 1 (Homo sapiens, UniProt P28845). Briefly: Inhibition of 11beta-HSD1 (unknown origin).

Chain of 11-beta-hydroxysteroid dehydrogenase 1 (P28845 whole entry): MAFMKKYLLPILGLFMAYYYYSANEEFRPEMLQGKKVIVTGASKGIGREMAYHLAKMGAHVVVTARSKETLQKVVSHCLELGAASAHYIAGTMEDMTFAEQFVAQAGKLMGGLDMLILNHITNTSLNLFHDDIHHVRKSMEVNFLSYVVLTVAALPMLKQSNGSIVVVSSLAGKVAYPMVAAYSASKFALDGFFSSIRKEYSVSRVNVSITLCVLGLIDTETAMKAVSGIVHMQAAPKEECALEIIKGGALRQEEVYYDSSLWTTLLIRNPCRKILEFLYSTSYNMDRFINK

In general, IC50 refers to the concentration that inhibits the measured activity by half. A high value points to a need for much substance. The compound `CC(C)CN1CCC[C@@H]1C(=O)NC1CCCCC1` gave an IC50 of 9 nM.
The result for `O=C(NC12CC3CC(CC(C3)C1)C2)[C@H]1CCCN1Cc1ccccn1` reads 12 nM.
